Experimental data taken from paper PMC7782499, “Progerinin, an optimized progerin-lamin A binding inhibitor, ameliorates premature senescence phenotypes of Hutchinson-Gilford progeria syndrome” (Communications Biology, 2021).

Legend:
Lmna G609G/+ mouse = test: Life span of Lmna G609G/+ mice; type: in vivo
Description: Fig. 3 In vivo favorable effect of SLC-D011. A Gross morphology of Lmna^G609G/G609G mice (10 weeks old) was ameliorated after injection with SLC-D011. At the same age, the experimental group (D011) of mice were larger than vehicle-injected control (Con) subjects regardless of gender. B, C SLC-D011 increases body weight B and extends life span C of Lmna^G609G/G609G progeria model mouse (Con: n = 8; SLC-D011: n = 8). Compared with 14.8 weeks of average (ave) life span with maximum (max) life span of 15.5 weeks, 20 mg/kg of intraperitoneal (i.p) injection (twice a week) of SLC-D011 could extend the life span upto 19 weeks (max = 21 weeks). Lmna^G609G/G609G mice were injected with SLC-D011 from age of 5-week old, *p < 0.05. D Gross morphology of SLC-D011 injected Lmna^G609G/+ mouse. […] E SLC-D011 increases body weights of Lmna^G609G/+ mice (Con: n = 10; SLC-D011: n = 11), *p < 0.05. F Favorable effect of SLC-D011 on life span of Lmna^G609G/+ mice. Compared with vehicle-injected control group (ave = 46.7 weeks and max = 48 weeks), SLC-D011 treatment obviously extended the average life span to 63 weeks (max = 64 weeks). The injection was started from 32 weeks old, **p < 0.001. “Con” means vehicle (a solvent composed of DMSO and PBS)-injected mouse group. TEXT PRINTED IN THE PICTURE: (C) D011: Kaplan-Meier survival curve in Lmna^G609G/G609G: Ave=19; Kaplan-Meier survival curve in Lmna^G609G/G609G: Max=21 | (F) D011: Kaplan-Meier survival curve in Lmna^G609G/+: Ave=63; Kaplan-Meier survival curve in Lmna^G609G/+: Max=64 DOUBTS OF THE COPYIST ABOUT THIS PICTURE: Panels C and F: the Ave/Max labels are not printed with a group name. They are assigned to D011 (solid curve) or Con (dashed curve) only by their position beside the curves. / Panel C Ave=14.8, Max=15.5 and panel F Ave=46.7, Max=48 stand beside the dashed Con curve. They are left out because Con is the control group, not a substance. / No unit is printed with the Ave/Max values. Only the axis reads Age (weeks).
Animal experiments were performed in a facility certified by the Association for Assessment and Accreditation of Laboratory Animal Care in compliance with animal policies approved by Pusan National University. The mouse work was performed under the study protocol PNU-2019-2181, as approved by the Institutional Animal Care and Use Committee. Lmna^G609G/609G mice were generated by timed mating of heterozygous Lmna^G609G/+ provided by Carlos López-Otín (Universidad de Oviedo, Asturias, Oviedo, Spain). SLC-D011 was mixed with dimethyl sulfoxide (DMSO) and phosphate-buffered saline (PBS). It was then intraperitoneally injected into mice (20 mg/kg twice per week from 5-week-old). SLC-D011 and lonafarnib were orally administrated to mice daily at a concentration of 10 mg/ml in monoolein-based solution. Lonafarnib was generously provided by Merck, the Progeria Research Foundation (PRF) and the PRF Lonafarnib Pre-clinical Drug Supply Program. Control mice were treated with monoolein-based solution alone in the same way. Lmna^G609G/609G mice were treated with clear chemical solution throughout the life span, starting from 5 weeks of age. Lmna^G609G/+ mice were treated via intraperitoneal and oral administrations, starting from 32 weeks of age.
Fig. S10. Or al administration of SLC-D011 suppresses premature aging features of LmnaG609G/+ mi c e . A.
Gross morphology of SLC-D011 treated Lmna G609G/+ mice at 36 weeks old. […]

CYP2C9 = CYP2C9 (Homo sapiens, UniProt P11712); test: CYP inhibition, CYP2C9; type: in vitro ADME; parameters: unit not given here
Description: At pre-set time-points, blood concentration of JH4 was determined by LC-MS/MS analysis[22],[23]. Other chemicals were also tested using similar protocol. In vitro ADME studies (plasma protein binding, CYP inhibition, microsomal stability, plasma stability, and hERG inhibition) were performed by New Drug Development Center (Daegu, Korea) using standard protocols[24],[25].

Chain of CYP2C9 (P11712 whole entry): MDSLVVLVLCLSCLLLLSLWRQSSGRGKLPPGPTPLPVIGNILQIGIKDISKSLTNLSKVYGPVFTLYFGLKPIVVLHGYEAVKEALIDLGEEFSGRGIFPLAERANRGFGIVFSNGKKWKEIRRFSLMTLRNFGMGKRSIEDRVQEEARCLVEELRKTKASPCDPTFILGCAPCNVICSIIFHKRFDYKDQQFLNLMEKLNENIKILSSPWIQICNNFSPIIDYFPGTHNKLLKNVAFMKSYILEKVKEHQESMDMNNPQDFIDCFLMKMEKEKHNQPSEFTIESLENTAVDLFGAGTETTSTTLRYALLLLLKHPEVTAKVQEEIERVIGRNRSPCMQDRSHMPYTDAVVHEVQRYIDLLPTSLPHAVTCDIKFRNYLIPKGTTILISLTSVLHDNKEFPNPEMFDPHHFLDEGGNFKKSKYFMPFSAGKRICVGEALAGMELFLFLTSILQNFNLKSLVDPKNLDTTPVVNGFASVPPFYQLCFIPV

SMILES: CC1(C)Oc2cc3oc(=O)ccc3cc2C[C@@H]1OC/C=C/c1ccccc1 [SLC-D011]
- Average life span (Lmna G609G/+ mouse; i.p. injection from 32 weeks old): 63 weeks
- Extension of life span (Lmna G609G/+ mouse; i.p. injection, longer than control (untreated)): ~ 16 weeks
- Maximum life span (Lmna G609G/+ mouse; oral 50 mg/kg daily): 65.5 weeks
- Average life span (Lmna G609G/+ mouse; oral 50 mg/kg daily, 50 mg/kg): 64.9 weeks
- Average life span (Lmna G609G/+ mouse; oral 50 mg/kg daily, listed as progerinin, 50 mg/kg): 65 weeks
- CYP inhibition (CYP2C9): 78.4
